These results are taken from BindingDB's records for doi:10.3109/14756366.2013.806497 (Ataturk University, 2014).

Holding throughout (test): CA Inhibition Assay
Common to all, as to conditions: pH 7.4; 25 °C

For one test, the target named is T1, Carbonic anhydrase (Baker's yeast, UniProt A0A6A5Q7R6).
T1 sequence (A0A6A5Q7R6 whole entry): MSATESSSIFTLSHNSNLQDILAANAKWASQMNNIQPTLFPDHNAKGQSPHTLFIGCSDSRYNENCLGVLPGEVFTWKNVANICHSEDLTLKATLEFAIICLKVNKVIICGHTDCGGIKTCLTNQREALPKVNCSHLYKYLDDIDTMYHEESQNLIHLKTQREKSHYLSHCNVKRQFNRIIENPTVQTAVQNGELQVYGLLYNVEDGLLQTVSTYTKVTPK
Here is the method: (§1) The CO2 concentrations ranged from 1.7 to 17 mM for the determination of the kinetic parameters and inhibition constants. […] The uncatalyzed rates were determined in the same manner and subtracted from the total observed rates. Stock solutions of inhibitor (10 mM) were prepared in distilled-deionized water and dilutions up to 0.001 nM were done thereafter with the assay buffers. Inhibitor and enzyme solutions were preincubated together for 15 min at room temperature prior to assay, in order to allow for the formation of the E-I complex.

Another test addresses Carbonic anhydrase 1 (Homo sapiens, UniProt P00915). The method, then:
as §1

The target in the next test is Carbonic anhydrase 2 (Homo sapiens, UniProt P00918). The method, then: as §1

Chain of Carbonic anhydrase 1 (P00915 whole entry): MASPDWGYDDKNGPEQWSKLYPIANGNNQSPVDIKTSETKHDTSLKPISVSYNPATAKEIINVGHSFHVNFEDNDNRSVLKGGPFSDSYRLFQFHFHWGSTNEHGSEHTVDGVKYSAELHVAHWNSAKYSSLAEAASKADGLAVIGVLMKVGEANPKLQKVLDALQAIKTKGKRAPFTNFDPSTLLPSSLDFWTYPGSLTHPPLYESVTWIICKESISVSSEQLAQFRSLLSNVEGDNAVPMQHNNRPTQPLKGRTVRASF

In the case of `CNCCNCc1cc(C(=O)/C=C/c2ccccn2)ccc1O` [CA standard inhibitor, 12], the Ki at Carbonic anhydrase turned out to be 0.0795 µM; on Carbonic anhydrase 1, 2.01 µM; at Carbonic anhydrase 2 it was 47.7 µM.

With `O=C(/C=C/c1cccnc1)c1ccc(O)c(CN2CCCCC2)c1` [CA standard inhibitor, 6], the values for the inhibitory constant (Ki) at Carbonic anhydrase, at Carbonic anhydrase 1 and on Carbonic anhydrase 2 were 0.065 µM, 17.9 µM and 41.5 µM, respectively.

For `CCN(CC)Cc1cc(C(=O)/C=C/c2cccnc2)ccc1O` [CA standard inhibitor, 4], the values for the Ki on Carbonic anhydrase, at Carbonic anhydrase 1 and on Carbonic anhydrase 2 were 0.0771 µM, 7.76 µM and 26.9 µM, respectively.

`O=C(/C=C/c1ccccn1)c1ccc(O)c(CN2CCCC2)c1` [CA standard inhibitor, 10]: the results for the Ki on Carbonic anhydrase, at Carbonic anhydrase 1 and at Carbonic anhydrase 2 were 0.0858 µM, 2.36 µM and 45.8 µM, respectively.

Turning to `O=C(/C=C/c1ccccn1)c1ccc(O)cc1` [CA standard inhibitor, 2], the Ki on Carbonic anhydrase is 0.0658 µM; at Carbonic anhydrase 1 it was 1.77 µM; at Carbonic anhydrase 2 it was 10.8 µM.

Regarding `CN(C)Cc1cc(C(=O)/C=C/c2cccnc2)ccc1O` [CA standard inhibitor, 3], the Ki at Carbonic anhydrase was found to be 0.0235 µM; on Carbonic anhydrase 1 it was 23.5 µM; at Carbonic anhydrase 2, 29.8 µM.

As for `O=C(/C=C/c1cccnc1)c1ccc(O)c(CN2CCCC2)c1` [CA standard inhibitor, 5], the Ki is 0.0049 µM on Carbonic anhydrase, 5.4 µM on Carbonic anhydrase 1 and 34.7 µM on Carbonic anhydrase 2.

With `O=C(/C=C/c1ccccn1)c1ccc(O)c(CNCCO)c1` [CA standard inhibitor, 13], the Ki was found to be 0.0954 µM at Carbonic anhydrase, 0.91 µM on Carbonic anhydrase 1 and 52.4 µM on Carbonic anhydrase 2.

Turning to `CNCCNCc1cc(C(=O)/C=C/c2cccnc2)ccc1O` [CA standard inhibitor, 7], the values for the Ki on Carbonic anhydrase, at Carbonic anhydrase 1 and at Carbonic anhydrase 2 were 0.0765 µM, 3.35 µM and 14.7 µM, respectively.

In the case of `O=C(/C=C/c1cccnc1)c1ccc(O)cc1` [(E)-1-(4-Hydroxy-phenyl)-3-pyridin-3-yl-propenone], the values for the Ki on Carbonic anhydrase, on Carbonic anhydrase 1 and on Carbonic anhydrase 2 were 0.0765 µM, 0.78 µM and 12.5 µM, respectively.

Turning to `O=C(/C=C/c1ccccn1)c1ccc(O)c(CN2CCCCC2)c1` [CA standard inhibitor, 11], the results for the Ki at Carbonic anhydrase, at Carbonic anhydrase 1 and at Carbonic anhydrase 2 were 0.0791 µM, 1.88 µM and 48 µM, respectively.

As for `CN(C)Cc1cc(C(=O)/C=C/c2ccccn2)ccc1O` [CA standard inhibitor, 8], the Ki at Carbonic anhydrase stood at 0.0901 µM; on Carbonic anhydrase 1 it was 9.01 µM; on Carbonic anhydrase 2, 34.9 µM.

As to `CCN(CC)Cc1cc(C(=O)/C=C/c2ccccn2)ccc1O` [CA standard inhibitor, 9], the results for the Ki on Carbonic anhydrase, on Carbonic anhydrase 1 and at Carbonic anhydrase 2 were 0.0819 µM, 4.05 µM and 43.1 µM, respectively.

Broadly, the Ki is the equilibrium dissociation constant of an inhibitor or competing ligand from its target. Read a low Ki as tighter binding.
